The term melting point denotes the temperature of the solid-liquid transition. In turn, `CC(C)C(Cl)C(=O)O` (configuration not stated) registered a melting point of 33 to 35 °C.
With `O=C(c1c(F)cccc1F)N1CCNCC1` the figure was 111 to 113 °C.
With `CCS(=O)(=O)c1cc(F)ccc1N`, the melting point was in the range of 43 to 45 °C.
`O=C(O)CN1CCSC1=O` came in with a melting point of 173 to 175 °C.
`O=C(O)CCc1nnc(-c2cccnc2)o1` displayed a melting point of 197 to 199 °C.
With `CCC(=O)c1ccccc1OC(F)F` the figure was 30 to 32 °C.
With `CC(C)(C)OC(=O)N1CCN(c2ncccc2C#N)CC1` the figure was 65 to 67 °C.
`COc1ccc(C=NO)cc1OC` came in with a melting point of 91 to 93 °C.
Take `N#Cc1ccc(-c2csc(N)n2)cc1`: the melting point is 267 to 269 °C.
With `O=C(O)c1cn(-c2ccccc2)nn1` the figure was 138 to 140 °C.
With `O=C(O)c1cc(-c2cccc(Br)c2)nc2ccccc12` the figure was 215 to 217 °C; with `CS(=O)(=O)Nc1ccc(C(F)(F)F)cc1N`, 126 to 128 °C; with `Cc1ccc(C(=O)CBr)cc1[N+](=O)[O-]`, 45 to 47 °C.
Turning to `Fc1cccc(-c2nc(CCl)co2)c1`, the melting point lay in the range of 55 to 57 °C.
As for `COC(=O)c1snc(-c2ccccc2)c1N`, the melting point is 114 to 116 °C.
With `CN1CCC(Nc2ccccc2N)CC1` the figure was 86 to 88 °C.
`O=C1CN=C(S)N1C1CCCCCC1`: the melting point lay within 72 to 74 °C.
With `COCCOc1ccc(C=O)cc1OC` the figure was 67 to 69 °C.
With `Clc1ccnc2ccsc12` the figure was 32 to 34 °C.
Molecule `CC(C)(C)OC(=O)NCC1CCCCC12NC(=O)NC2=O` (configuration not stated) showed a melting point of 229 to 231 °C.
For the molecule `COc1cc(C)c(N)cc1OC`, the melting point lay within 39 to 41 °C.
With `CN(C)CCCNS(=O)(=O)c1ccc(Cl)c([N+](=O)[O-])c1` the figure was 98 to 100 °C; with `COc1ccc(C(=O)CCC(=O)O)c(Cl)c1`, 165 to 167 °C; with `O=C1Nc2c(ccc(Cl)c2F)C1=O`, 200 to 202 °C.
For the molecule `CNc1ccc(S(C)(=O)=O)cc1`, the melting point lay in the range of 126 to 128 °C.
With `N#CC1(N2CCNCC2)CCCCC1` the figure was 82 to 84 °C; with `NS(=O)(=O)c1ccc(CNCC(F)(F)F)cc1`, 129 to 131 °C; with `CC(C)(C)OC(=O)NC(C)(C)c1noc(CCl)n1`, 79 to 81 °C.
The result for `Nc1cccc(Cn2cnnc2)c1` reads 139 to 141 °C; that for `N#CCc1ccc(NC(=O)CCl)cc1`, 122 to 124 °C.
With `Cc1cc(C=O)c(C)n1-c1ccc(F)cc1F` the figure was 133 to 135 °C; with `COc1ccccc1N(C)S(=O)(=O)c1ccc(C)c(C(=O)O)c1`, 153 to 155 °C.
Molecule `O=c1[nH]ncc2cccnc12` displayed a melting point of 309 to 311 °C.
The result for `Sc1nnnn1CCc1ccccn1` reads 193 to 195 °C.
Regarding `CC(C)(C)OC(=O)Nc1cscn1`, the melting point was 153 to 155 °C.
Molecule `O=C(O)c1ccc(OC2CCCCC2)cc1` gave a melting point of 184 to 186 °C.
Regarding `COc1ccc2c(c1)CCCC2CC(=O)O` (configuration not stated), the melting point lay in the range of 84 to 86 °C.
The result for `NC(=O)c1cn[nH]c1N` reads 184 to 186 °C; that for `O=C(O)CCc1ccc(S(=O)(=O)N2CCCC2)cc1`, 137 to 139 °C; that for `CNc1ccnc(C)n1`, 79 to 81 °C.
With `NCCNS(=O)(=O)Cc1ccccc1` the figure was 88 to 90 °C; with `Nc1nc(-c2cccs2)c(-c2cccs2)s1`, 139 to 141 °C; with `Nc1ccc(S(=O)(=O)C(F)(F)F)cc1`, 94 to 96 °C.
The result for `O=C(O)C1CC1c1cccc(Br)c1` (configuration not stated) reads 115 to 117 °C; that for `O=S1(=O)CCCN1c1ccccc1Br`, 115 to 117 °C.
Regarding `Cc1ccnc(S(N)(=O)=O)c1`, the melting point lay within 163 to 165 °C.
The result for `COC(=O)CNc1ncccc1[N+](=O)[O-]` reads 104 to 106 °C; that for `O=C(O)c1c(Cl)nc2sccn12`, 181 to 183 °C; that for `O=C(O)c1oc2cc(Cl)ccc2c1-c1ccccc1`, 229 to 231 °C.
With `COCCNc1nc(Cl)nc(Cl)n1` the figure was 71 to 73 °C; with `CCNC(=O)C1CCCNC1` (configuration not stated), 60 to 62 °C.
With `CC(=O)NCc1ccc(C(=O)C(C)Cl)s1` (configuration not stated) the figure was 79 to 81 °C; with `Clc1ccc(NCc2cccnc2)cc1`, 98 to 100 °C.
Take `O=Cc1ccccc1OCC(=O)N1CCCC1`: the melting point was in the range of 112 to 114 °C.
With `COc1cc(C=O)cc(Br)c1OCc1ccccc1` the figure was 48 to 50 °C; with `O=C(O)c1cc(S(=O)(=O)Cl)c(Cl)cc1Cl`, 158 to 162 °C; with `O=C(O)c1cccn1Cc1cccs1`, 134 to 136 °C.
Take `O=C(O)Cc1csc(NC(=O)Cc2cccs2)n1`: the melting point is 200 to 202 °C.
On to `NCc1cc(Br)c2c(c1)OCO2`, for which the melting point fell in the range of 49 to 51 °C.
The molecule `CCNS(=O)(=O)c1ccc(Br)c(C(=O)O)c1` registered a melting point of 198 to 200 °C.
The result for `O=C(c1cc2ccccc2cc1O)N1CCOCC1` reads 216 to 218 °C.
With `Oc1ccc2c(c1)OCCCO2` the figure was 97 to 99 °C; with `CCS(=O)(=O)Nc1ccc(C(=O)O)cn1`, 236 to 238 °C.
The result for `Nc1ccc(-c2nnc(O)o2)cc1` reads 166 to 168 °C.
On to `CN1CCN(Cc2cccc(N)c2)CC1`, for which the melting point was 78 to 80 °C.
For the molecule `CNS(=O)(=O)c1cc(OC)c(OC)cc1Br`, the melting point fell in the range of 156 to 158 °C.
The result for `Cn1cc(C(=O)O)c(Cl)n1` reads 209 to 211 °C.
With `O=C(O)c1n[nH]ccc1=O` the figure was 199 to 201 °C; with `CC(C)Oc1cccc(C(O)CN)c1` (configuration not stated), 52 to 54 °C.
In turn, `CCOC(=O)c1nnc(C)n1C1CC1` came in with a melting point of 109 to 111 °C.
`O=C(CCl)Nc1nc(-c2ccccc2Cl)c(-c2ccccc2Cl)s1` gave a melting point of 135 to 137 °C.
Consider `COc1ccc(Br)c(-c2nnn[nH]2)c1`, for which the melting point lay in the range of 209 to 211 °C.
The result for `c1ccc2sc(C3CCCCN3)nc2c1` (configuration not stated) reads 200 to 202 °C.
Consider `O=C(O)CCC(=O)c1ccc2ccccc2c1`, for which the melting point fell in the range of 172 to 174 °C.
The result for `CCS(=O)(=O)NCc1ccc(C(=O)O)cc1` reads 194 to 196 °C; that for `NC(=O)NC(CC(=O)O)c1cccs1` (configuration not stated), 190 to 192 °C; that for `N#CCOc1ccccc1C=O`, 79 to 81 °C.
The result for `NS(=O)(=O)c1cc(C(=O)O)ccc1F` reads 236 to 238 °C; that for `O=C(O)c1ccc(S(=O)(=O)NCc2ccco2)cc1`, 229 to 231 °C; that for `O=C(Cc1ccc(O)cc1)NC1CCNCC1`, 211 to 213 °C.
With `NN=c1ccc(C(N)=O)n[nH]1` the figure was 251 to 253 °C.
Consider `O=c1c2ccccc2nc(S)n1CCCN1CCOCC1`, for which the melting point lay within 175 to 177 °C.
Take `COC(=O)c1cc(C)cc([N+](=O)[O-])c1N`: the melting point lay within 106 to 108 °C.
With `CC(C)(C)OC(=O)Nc1cccc2c1OCO2` the figure was 89 to 91 °C; with `CC1(C)C(=O)Nc2ccc(Br)cc21`, 156 to 158 °C; with `Nc1nc2ccccc2n1-c1ccc(F)cc1`, 164 to 166 °C.
The result for `CC1CC(C)CN(S(=O)(=O)c2ccc(N)cc2)C1` (configuration not stated) reads 157 to 159 °C.
